The source of these data is paper PMC9354954, “Assessing Bioavailability and Bioactivity of 4-Hydroxythiazolidine-2-Thiones, Newly Discovered Glucosinolate Degradation Products Formed During Domestic Boiling of Cabbage” (Frontiers in Nutrition, 2022).

A short description of series [1]: Estimation of permeability coefficients from plot of Levin data using measured partition coefficients. The note with it: for Papp: not told, estimated from plot of Levin data (ref 32) using measured octanol/water partition coefficients, read-out: estimated permeability coefficient. The text has this:
The log P-value is positive for compounds which are better soluble in the octanol phase, and is negative for compounds which are better soluble in the aqueous phase. To assess if the different uptake behavior of the two HTTs is based on their different polarity, the octanol/water partition coefficients of several compounds were plotted against their permeability coefficients, based on a previous report by Levin ([32]) (Supplementary Figure S5). The obtained plot was used to estimate the permeability coefficients of the two HTTs with 2 × 10^−4 cm/s for allyl HTT and 1.1 × 10^−5 cm/s for 4-MSOB HTT using the measured octanol/water partition coefficients of both compounds. The ratio of both estimated permeability coefficients was 18 and fitted very well to the measured ratios of 27-fold and 10-fold for the higher uptake of allyl HTT compared to 4-MSOB HTT in the experiments with HepG2 and Caco-2 cells. Therefore, the uptake of allyl HTT and 4-MSOB HTT in the in vitro assays can be primarily explained by simple passive diffusion through the cell membrane. Additionally, the fact that in both intestinal model experiments (transport of the analyte from the upper to the lower compartment, as well as from the lower to an upper compartment), the transport velocity was similar, and an equilibrium concentration between both compartments was reached, supporting the hypothesis of passive diffusion without the need of special transporters.
Figure S5: Plot of data reported by Levin (1980) to describe the correlation between the octanol/water partition coefficients of several compounds and their permeability coefficients. The red line and thin black lines were draw by the author and used to estimate the permeability coefficients of 3-allyl-4-hydroxythiazolidine-2-thione (allyl HTT) and 4-hydroxy-3-(4-(methylsulfinyl)butyl) thiazolidine-2-thione (4-MSOB HTT) using their measured octanol-water partition coefficients (black lines).

In the next series the test system is Caco-2 cells. Briefly: Cytotoxicity, MTT assay. The class given is cell-based, human. The note with it: Caco-2, MTT assay, up to 100 μM, 24 h. On the procedure:
(§1) To determine the cytotoxicity of allyl HTT and 4-MSOB HTT, HepG2 and Caco-2 cells were seeded in a 96-well TC-plate (standard F, sterile, from Sarsted, Nümbrecht, Germany) using a seeding density of 20,000 cells/well. After 24 h, the medium was exchanged to 200 μL pure medium or 200 μL medium containing allyl HTT or 4-MSOB HTT with concentrations in the range of 0.1–100 μM. The cells were treated for 24 h under cell culture conditions (prepared for three biological replicates, every 3 technical replicates). Cell viability was determined using the MTT assay and the neutral red uptake assay based on Schröter et al. ([27]). In the case of MTT assay, after 24 h of HTT treatment, 20 μL of MTT solution (75 mg MTT in 15 mL PBS) were added, and cells were incubated for 60 min under cell culture conditions. Afterward, the supernatant was removed and 100 μL of lysis buffer (5% formic acid in isopropanol) was added and the plate was shaken for 10 min at 300 rpm before measuring the absorption at 550 ± 5 nm (reference 690 ± 5 nm) by a Tecan i-control Infinite M200 PRO plate reader (Crailsheim, Germany). In the case of the neutral red uptake assay, the supernatant was removed after 24 h HTT treatment, and 100 μL neutral red solution (40 mg neutral red in 10 mL PBS, freshly diluted 1:100 with medium and incubated for 24 h under cell culture conditions) was added. After incubation of neutral red solution for 2 h under cell culture conditions, the supernatant was removed, and cells were washed with 150 μL of PBS. After removing PBS, 150 μL desorb solution (49.5% water/49.5% ethanol/1% acetic acid) was added and the plate was shaken for 10 min at 300 rpm before measuring the absorption at 540 ± 5 nm by Tecan i-control Infinite M200 PRO plate reader. The mean ± SD is used for presenting the results of three technical replicates for each data point of the three biological replicates.

The subject of another series is HepG2 cells. Briefly: Cytotoxicity, MTT assay. The conditions noted are these: up to 100 μM, 24 h. The class given is cell-based, human. On the procedure: as §1
Series [2] is described as follows: Antioxidant potential, DPPH assay. The conditions noted are these: compared to compound free blank. On the procedure: To evaluate the potential of allyl HTT and 4-MSOB HTT to act as antioxidants, ABTS and DPPH were used as model radicals and Trolox as reference antioxidants based on Shalaby and Shanab ([28]). In total, 1.5 mg of ABTS and 0.26 mg potassium peroxodisulfate were dissolved in 4 mL of pure water and incubated in the dark overnight at room temperature. Afterward, 36 mL of MeOH were added to obtain the fresh ABTS working solution. In the case of the DPPH assay, 1.1 mg of DPPH were dissolved in 4 mL of MeOH and incubated for 2 h in the dark at 4°C, followed by the addition of 36 mL of MeOH to obtain the fresh DPPH working solution. Standards of Trolox, allyl HTT, and 4-MSOB HTT were prepared in water/MeOH (90/10, v/v%) at concentrations in the range of 6.25–100 μM. To detect the antioxidant potential, 100 μL of standard or water/MeOH (90/10, v/v%) as control were added to 1,000 μL of ABTS or DPPH working solution, and the extinction was measured directly after mixing and after 6 min of incubation in the dark with a spectrometer (UviLine 9100, Schott Instruments, Mainz, Germany) at 734 nm in the case of ABTS assay and 515 nm in DPPH assay (each prepared as duplicate). The results are reported as mean ± SD of the reduction of the extinction compared to the control.
(In general: DPPH is a stable violet radical that fades when it is reduced.)

Molecules are shown by their SMILES.

As for `C[S+]([O-])CCCCN1C(=S)SCC1O` (centres unmarked) [4-MSOB HTT, 4-hydroxy-3-(4-(methylsulfinyl)butyl)thiazolidine-2-thione], the Papp in series [1] was 11 ×10⁻⁶ cm/s. The “effect on cell viability compared to untreated cells” value in the series on Caco-2 cells and with HepG2 cells was “did not show any effect on cell viability” each time. The “Relative signal reduction of the extinction value of the radical DPPH” value in series [2] (6.25 µM) was 0.3 ± 0.4%; in series [2] (12.5 µM) it was 0.0 ± 0.3%; in series [2] (25 µM) it was 0.3 ± 0.3%; in series [2] (50 µM) it was 0.3 ± 0.4%; in series [2] (100 µM), 0.3 ± 0.4%.

On to `C=CCN1C(=S)SCC1O` (centres unmarked) [allyl HTT, 3-allyl-4-hydroxythiazolidine-2-thione], for which the “ratio of both estimated permeability coefficients” value in series [1] (allyl HTT vs 4-MSOB HTT) was 18. For the same compound, the Papp in series [1] is 200 ×10⁻⁶ cm/s. For the same compound, the “effect on cell viability compared to untreated cells” value in the series on Caco-2 cells and in the series with HepG2 cells was “did not show any effect on cell viability” each time. Besides, the “Relative signal reduction of the extinction value of the radical DPPH” value is reported as 0.2 ± 0.3% in series [2] (6.25 µM); 0.0 ± 0.3% in series [2] (12.5 µM); 0.1 ± 0.3% in series [2] (25 µM); 0.1 ± 0.3% in series [2] (50 µM); 0.0 ± 0.3% in series [2] (100 µM).
